Reference: US8637484B2, “Modulation of growth hormone receptor expression and insulin-like growth factor expression” (Antisense Therapeutic Limited, priority 2003, dated 2014)
In the oligonucleotide strings, read from the 5' end, every base follows the letter of its sugar. An asterisk marks phosphorothioate; unmarked linkages are phosphodiester. Other units and linkages are bracketed, terminal groups are in braces. A string of capitals states the bases alone. e = 2'-O-(2-methoxyethyl) (MOE); [5mC] = 5-methylcytosine; d = 2'-deoxy (DNA)

System: human growth hormone receptor mRNA
Assay: Inhibition of human growth hormone receptor mRNA levels in MCF7 cells, quantitative real-time PCR
Type: cell-based
Parameters: concentration or dose not given beside the values
Details: averages from three experiments
Method: The human breast carcinoma cell line MCF-7 was obtained from the American Type Culture Collection (Manassas, Va.). MCF-7 cells were routinely cultured in DMEM low glucose (Gibco/Life Technologies, Gaithersburg, Md.) supplemented with 10% fetal calf serum (Gibco/Life Technologies, Gaithersburg, Md.). Cells were routinely passaged by trypsinization and dilution when they reached 90% confluence. Cells were seeded into 96-well plates (Falcon-Primaria #3872) at a density of 7000 cells/well for use in RT-PCR analysis.
When cells reached 65-75% confluency, they were treated with oligonucleotide. For cells grown in 96-well plates, wells were washed once with 100 μL OPTI-MEM™-1 reduced-serum medium (Invitrogen Corporation, Carlsbad, Calif.) and then treated with 130 μL of OPTI-MEM™-1 containing 3.75 μg/mL LIPOFECTIN™ (Invitrogen Corporation, Carlsbad, Calif.) and the desired concentration of oligonucleotide. Cells are treated and data are obtained in triplicate. After 4-7 hours of treatment at 37° C., the medium was replaced with fresh medium. Cells were harvested 16-24 hours after oligonucleotide treatment.
Total RNA was isolated using an RNEASY 96™ kit and buffers purchased from Qiagen Inc. (Valencia, Calif.) following the manufacturer's recommended procedures. Briefly, for cells grown on 96-well plates, growth medium was removed from the cells and each well was washed with 200 μL cold PBS. 150 μL Buffer RLT was added to each well and the plate vigorously agitated for 20 seconds. 150 μL of 70% ethanol was then added to each well and the contents mixed by pipetting three times up and down. The samples were then transferred to the RNEASY 96™ well plate attached to a QIAVAC™ manifold fitted with a waste collection tray and attached to a vacuum source. Vacuum was applied for 1 minute. 500 μL of Buffer RW1 was added to each well of the RNEASY 96™ plate and incubated for 15 minutes and the vacuum was again applied for 1 minute. An additional 500 μL of Buffer RW1 was added to each well of the RNEASY 96™ plate and the vacuum was applied for 2 minutes. 1 mL of Buffer RPE was then added to each well of the RNEASY 96™ plate and the vacuum applied for a period of 90 seconds. The Buffer RPE wash was then repeated and the vacuum was applied for an additional 3 minutes. The plate was then removed from the QIAVAC™ manifold and blotted dry on paper towels. The plate was then re-attached to the QIAVAC™ manifold fitted with a collection tube rack containing 1.2 mL collection tubes. RNA was then eluted by pipetting 140 μL of RNAse free water into each well, incubating 1 minute, and then applying the vacuum for 3 minutes.
Quantitation of growth hormone receptor mRNA levels was accomplished by real-time quantitative PCR using the ABI PRISM™ 7600, 7700, or 7900 Sequence Detection System (PE-Applied Biosystems, Foster City, Calif.) according to manufacturer's instructions. This is a closed-tube, non-gel-based, fluorescence detection system which allows high-throughput quantitation of polymerase chain reaction (PCR) products in real-time. As opposed to standard PCR in which amplification products are quantitated after the PCR is completed, products in real-time quantitative PCR are quantitated as they accumulate. This is accomplished by including in the PCR reaction an oligonucleotide probe that anneals specifically between the forward and reverse PCR primers, and contains two fluorescent dyes. A reporter dye (e.g., FAM or JOE, obtained from either PE-Applied Biosystems, Foster City, Calif., Operon Technologies Inc., Alameda, Calif. or Integrated DNA Technologies Inc., Coralville, Iowa) is attached to the 5′ end of the probe and a quencher dye (e.g., TAMRA, obtained from either PE-Applied Biosystems, Foster City, Calif., Operon Technologies Inc., Alameda, Calif. or Integrated DNA Technologies Inc., Coralville, Iowa) is attached to the 3′ end of the probe. When the probe and dyes are intact, reporter dye emission is quenched by the proximity of the 3′ quencher dye. […]

Substance	% INHIB
227452 (antisense eT*e[5mC]*eA*eG*eG*dG*d[5mC]*dA*dT*dT*d[5mC]*dT*dT*dT*d[5mC]*e[5mC]*eA*eT*eT*e[5mC]) [compound 227452]	79%
227453 (antisense e[5mC]*eA*eT*eA*eA*dT*d[5mC]*dA*dG*dG*dG*d[5mC]*dA*dT*dT*e[5mC]*eT*eT*eT*e[5mC]) [compound 227453]	52%
227464 (antisense e[5mC]*e[5mC]*eT*eT*eT*dA*dA*dT*d[5mC]*dT*dT*dT*dG*dG*dA*eA*e[5mC]*eT*eG*eG) [compound 227464]	58%
227468 (antisense eT*e[5mC]*eA*eT*e[5mC]*dA*dA*dT*dA*dT*d[5mC]*dT*dA*dG*d[5mC]*eT*e[5mC]*eA*eA*eT) [compound 227468]	62%
227469 (antisense e[5mC]*eT*eT*eA*eG*dA*dA*dG*dT*d[5mC]*dT*dG*dT*d[5mC]*dT*eG*eT*eG*eT*e[5mC]) [compound 227469]	63%
227475 (antisense e[5mC]*e[5mC]*eT*eG*e[5mC]*dT*dG*dG*dT*dG*dT*dA*dA*dT*dG*eT*e[5mC]*eG*e[5mC]*eT) [compound 227475]	68%
227480 (antisense eA*eT*eG*eT*eA*dA*dA*dT*dG*dT*d[5mC]*d[5mC]*dT*d[5mC]*dT*eT*eG*eG*eT*eT) [compound 227480]	66%
227481 (antisense eT*eG*eG*eT*eG*dA*dT*dG*dT*dA*dA*dA*dT*dG*dT*e[5mC]*e[5mC]*eT*e[5mC]*eT) [compound 227481]	45%
227482 (antisense eT*eT*e[5mC]*eT*eG*dT*dG*dG*dT*dG*dA*dT*dG*dT*dA*eA*eA*eT*eG*eT) [compound 227482]	53%
227483 (antisense eA*eG*eG*e[5mC]*eT*dT*dT*d[5mC]*dT*dG*dT*dG*dG*dT*dG*eA*eT*eG*eT*eA) [compound 227483]	75%
227484 (antisense eT*eG*eG*eT*eA*dA*dG*dG*d[5mC]*dT*dT*dT*d[5mC]*dT*dG*eT*eG*eG*eT*eG) [compound 227484]	63%
227488 (antisense eA*eG*eT*eT*eG*dG*dT*d[5mC]*dT*dG*dT*dG*d[5mC]*dT*d[5mC]*eA*e[5mC]*eA*eT*eA) [compound 227488]	86%
227489 (antisense eT*eG*eT*eT*e[5mC]*dA*dG*dT*dT*dG*dG*dT*d[5mC]*dT*dG*eT*eG*e[5mC]*eT*e[5mC]) [compound 227489]	75%
227490 (antisense eG*e[5mC]*eA*eT*eG*dA*dT*dT*dT*dT*dG*dT*dT*d[5mC]*dA*eG*eT*eT*eG*eG) [compound 227490]	67%
227499 (antisense eT*eA*eT*eA*eA*dA*dA*dG*dG*dG*d[5mC]*dT*dT*dT*dG*eT*eA*eA*eA*eA) [compound 227499]	14%
227500 (antisense e[5mC]*eA*eT*eA*eG*d[5mC]*dA*dG*d[5mC]*dA*dA*dA*dG*dT*dA*eG*e[5mC]*eA*eG*eA) [compound 227500]	69%
227501 (antisense eG*e[5mC]*eT*eA*eT*dT*dT*dT*dT*dG*dG*d[5mC]*dT*dA*dT*eA*eG*eA*eA*eA) [compound 227501]	64%
227502 (antisense eG*eA*eT*eT*eG*dA*dG*dG*dT*dA*dT*dT*dT*dA*dG*e[5mC]*eT*eA*eT*eT) [compound 227502]	56%
272302 (antisense eG*eA*eT*e[5mC]*e[5mC]*dA*dT*dA*d[5mC]*d[5mC]*dT*dG*dT*dA*dG*eG*eA*e[5mC]*e[5mC]*eT) [compound 272302]	60%
272303 (antisense e[5mC]*e[5mC]*eA*eG*eA*dG*dA*dT*d[5mC]*d[5mC]*dA*dT*dA*d[5mC]*d[5mC]*eT*eG*eT*eA*eG) [compound 272303]	55%

Substance	% INHIB
272304 (antisense eT*eG*e[5mC]*eT*eA*dA*dG*dG*dA*dT*dA*dG*d[5mC]*dT*dG*e[5mC]*eT*eG*eT*eG) [compound 272304]	48%
272305 (antisense eT*eT*eG*eT*e[5mC]*dT*dT*dT*dA*dG*dG*d[5mC]*d[5mC]*dT*dG*eG*eA*eT*eT*eA) [compound 272305]	68%
272306 (antisense eT*eT*eA*eG*eA*dA*dG*dA*dA*dT*dT*dT*dG*dT*d[5mC]*eT*eT*eT*eA*eG) [compound 272306]	13%
272307 (antisense eG*eT*eG*eA*eA*dT*dT*dT*dA*dG*dG*d[5mC]*dT*d[5mC]*d[5mC]*eT*eT*eA*eG*eA) [compound 272307]	55%
272308 (antisense eG*e[5mC]*eT*eG*eT*dA*dT*dG*dG*dG*dT*d[5mC]*d[5mC]*dT*dA*eG*eG*eT*eT*e[5mC]) [compound 272308]	57%
272309 (antisense eT*eA*eA*e[5mC]*eA*dG*d[5mC]*dT*dG*dT*dT*dT*dT*d[5mC]*d[5mC]*e[5mC]*e[5mC]*eA*eG*e[5mC]) [compound 272309]	85%
272310 (antisense eT*eT*eT*e[5mC]*eA*dT*d[5mC]*d[5mC]*dA*d[5mC]*dT*dG*dT*dA*d[5mC]*e[5mC]*eA*e[5mC]*e[5mC]*eA) [compound 272310]	76%
272311 (antisense eT*eT*eG*e[5mC]*eA*d[5mC]*dT*dA*dT*dT*dT*d[5mC]*dA*dT*d[5mC]*eA*eA*e[5mC]*eA*eG) [compound 272311]	47%
272312 (antisense eG*eG*eG*eT*eG*dG*dA*dT*d[5mC]*dT*dG*dG*dT*dT*dG*e[5mC]*eA*e[5mC]*eT*eA) [compound 272312]	57%
272313 (antisense eA*eT*eT*eG*e[5mC]*dG*dT*dG*dG*dT*dG*d[5mC]*dT*dT*d[5mC]*e[5mC]*e[5mC]*eA*eT*e[5mC]) [compound 272313]	77%
272314 (antisense eT*eA*eG*eG*eG*dT*d[5mC]*d[5mC]*dA*dT*d[5mC]*dA*dT*dT*dT*eT*e[5mC]*e[5mC]*eA*eT) [compound 272314]	56%
272315 (antisense e[5mC]*eA*eA*eT*eG*dA*dG*dT*dA*d[5mC]*dA*d[5mC]*dT*dG*dG*eA*eA*e[5mC]*eT*eG) [compound 272315]	53%
272316 (antisense eA*eA*e[5mC]*eT*e[5mC]*dG*d[5mC]*d[5mC]*dA*dT*dA*dA*dT*dT*dT*e[5mC]*e[5mC]*eA*eG*eA) [compound 272316]	64%
272317 (antisense eA*eG*e[5mC]*e[5mC]*e[5mC]*dA*dA*dA*dT*dA*dT*dT*d[5mC]*d[5mC]*dA*eA*eA*eG*eA*eT) [compound 272317]	65%
272318 (antisense eT*e[5mC]*eA*eG*e[5mC]*dA*dT*dT*dT*dT*dA*dA*dT*d[5mC]*d[5mC]*eT*eT*eT*eG*e[5mC]) [compound 272318]	55%
272319 (antisense eA*eT*eT*eT*eT*d[5mC]*d[5mC]*dT*dT*d[5mC]*d[5mC]*dT*dT*dG*dA*eG*eG*eA*eG*eA) [compound 272319]	67%
272320 (antisense eA*eG*eA*eT*eT*dG*dT*dG*dT*dT*d[5mC]*dA*d[5mC]*d[5mC]*dT*e[5mC]*e[5mC]*eT*e[5mC]*eT) [compound 272320]	70%
272321 (antisense eA*eA*e[5mC]*e[5mC]*e[5mC]*dA*dA*dG*dA*dG*dT*d[5mC]*dA*dT*d[5mC]*eA*e[5mC]*eT*eG*eT) [compound 272321]	64%
272322 (antisense e[5mC]*eT*eG*eG*e[5mC]*dT*d[5mC]*dA*dT*d[5mC]*dA*dA*dT*dA*dT*e[5mC]*eT*eA*eG*e[5mC]) [compound 272322]	84%
